Test results: patent US9675070B2 (BAYER CROPSCIENCE AG, priority 2013, dated 2017)
Structures can show the parent of a compound that is named as a salt.

Key:
[1] = test system: larvae of the mustard beetle (Phaedon cochleariae); assay: Phaedon cochleariae spray test (PHAECO); assay type: in vivo; settings: Chinese cabbage leaf discs, after 7 days
Description: Phaedon cochleariae—Spray Test (PHAECO)
(§1) Solvents: 78.0 parts by weight of acetone
(§2) • 1.5 parts by weight of dimethylformamide Emulsifier: alkylaryl polyglycol ether
(§3) To produce a suitable preparation of active compound, 1 part by weight of active compound is dissolved using the stated parts by weight of solvent and made up with water comprising an emulsifier concentration of 1000 ppm until the desired concentration is reached. To produce further test concentrations, the preparation is diluted with emulsifier-containing water.
After 7 days, the efficacy in % is determined. 100% means that all of the beetle larvae have been killed; 0% means that none of the beetle larvae have been killed.

[2] = test system: greenhouse red spider mite (Tetranychus urticae), OP-resistant; assay: Tetranychus urticae spray test, OP-resistant (TETRUR); assay type: in vivo; settings: bean leaf discs, after 6 days
Description: Tetranychus urticae—Spray Test, OP-Resistant (TETRUR)
as §1, §2, §3
Discs of bean leaves (Phaseolus vulgaris) which are infested by all stages of the greenhouse red spider mite (Tetranychus urticae) are sprayed with an active compound preparation of the desired concentration.
After 6 days, the efficacy in % is determined. 100% means that all of the spider mites have been killed; 0% means that none of the spider mites have been killed.

[3] = test system: engorged adult female cattle ticks (Boophilus microplus); assay: Boophilus microplus injection test (BOOPMI Inj); assay type: in vivo; settings: application rate 20 μg/animal; injection into abdomen; assessed after 7 days
Description: Boophilus microplus Injection Test (BOOPMI Inj)
Solvent: dimethyl sulphoxide
To produce a suitable preparation of active compound, 10 mg of active compound are mixed with 0.5 ml of solvent, and the concentrate is diluted with solvent to the desired concentration.
1 μl of the active compound solution is injected into the abdomen of 5 engorged adult female cattle ticks (Boophilus microplus). The animals are transferred into dishes and kept in a climate-controlled room.
The activity is assessed after 7 days by laying of fertile eggs. Eggs whose fertility is not visible from the outside are stored in a climate-controlled cabinet until the larvae hatch after about 42 days. An efficacy of 100% means that none of the ticks has laid any fertile eggs; 0% means that all eggs are fertile.

[4] = log P determination by HPLC on reversed-phase column (C18), EEC Directive 79/831 Annex V.A8; assay type: physicochemical; settings: method a): Agilent 1100 LC, Zorbax Eclipse Plus C18, acetonitrile/water with formic acid, gradient 10-95% in 4.25 min, 55° C.
Description: Agilent 1100 LC system; 50*4.6 Zorbax Eclipse Plus C18 1.8 micron; mobile phase A: acetonitrile (0.1% formic acid); mobile phase B: water (0.09% formic acid); linear gradient from 10% acetonitrile to 95% acetonitrile in 4.25 min, then 95% acetonitrile for a further 1.25 min; oven temperature 55° C.; flow rate: 2.0 ml/min. Mass detection is carried out via an Agilend MSD system.
^a)Unless indicated otherwise, the following method was used to determine the log P values and masses: The determination of the given log P values was carried out in accordance with EEC Directive 79/831 Annex V.A8 by HPLC (High Performance Liquid Chromatography) on a reversed-phase column (C18). Agilent 1100 LC system; 50*4.6 Zorbax Eclipse Plus C18 1.8 micron; mobile phase A: acetonitrile (0.1% formic acid); mobile phase B: water (0.09% formic acid); linear gradient from 10% acetonitrile to 95% acetonitrile in 4.25 min, then 95% acetonitrile for a further 1.25 min; oven temperature 55° C.; flow rate: 2.0 ml/min. Mass detection is carried out via an Agilend MSD system. ^b)Note for the alternative method for determining log P values and masses: The stated log P values were determined in accordance with EEC Directive 79/831 Annex V.A8 by HPLC (High Performance Liquid Chromatography) using a reversed-phase column (C18). Waters ACQUITY UPLC-MS system; 2.1*50 mm Zorbax Eclipse Plus C18 1.8 μm 600 bar; injection volume: 0.5 ul about 1000 ppm; mobile phase A: acetonitrile (0.1% formic acid); mobile phase B: water (0.085% formic acid); linear gradient from 10% acetonitrile to 95% acetonitrile in 1.5 min, then 95% acetonitrile for a further 0.5 min; oven temperature 60° C.; flow rate: 1.0 ml/min. Mass detection is carried out via a Waters SQD system.

[5] = test system: caterpillars of the armyworm (Spodoptera frugiperda); assay: Spodoptera frugiperda spray test (SPODFR); assay type: in vivo; settings: maize leaf discs, after 7 days
Description: Spodoptera frugiperda—Spray Test (SPODFR)
as §1, §2, §3
Leaf discs of maize (Zea mays) are sprayed with an active compound preparation of the desired concentration and, after drying, populated with caterpillars of the armyworm (Spodoptera frugiperda).
After 7 days, the efficacy in % is determined. 100% means that all of the caterpillars have been killed; 0% means that none of the caterpillars have been killed.

[6] = test system: adult cat fleas (Ctenocephalides felis); assay: Ctenocephalides felis oral test (CTECFE); assay type: in vivo; settings: application rate 100 ppm in citrated cattle blood; after 2 days
Description: Ctenocephalides felis-Oral Test ([…]) Solvent: dimethyl sulphoxide To produce a suitable preparation of active compound, 10 mg of active compound are mixed with 0.5 ml of dimethyl sulphoxide. Dilution with citrated cattle blood gives the desired concentration. About 20 unfed adult cat fleas (Ctenocephalides felis) are placed into a chamber which is closed at the top and bottom with gauze. A metal cylinder whose bottom end is closed with a parafilm is placed onto the chamber. The cylinder contains the blood/active ingredient preparation, which can be imbibed by the fleas through the parafilm membrane. After 2 days, the kill in % is determined. 100% means that all of the fleas have been killed; 0% means that none of the fleas have been killed.

[7] = test system: adult houseflies (Musca domestica); assay: Musca domestica test (MUSCDO); assay type: in vivo; settings: application rate 100 ppm; after 2 days
Description: Musca domestica Test (MUSCDO) Solvents: dimethyl sulphoxide To produce a suitable preparation of active compound, 10 mg of active compound are mixed with 0.5 ml of dimethyl sulphoxide, and the concentrate is diluted with water to the desired concentration. Vessels containing a sponge treated with sugar solution and the active compound preparation of the desired concentration are populated with 10 adult houseflies (Musca domestica). After 2 days, the kill in % is determined. 100% means that all of the flies have been killed; 0% means that none of the flies have been killed.

[8] = test system: L1 larvae of the Australian sheep blowfly (Lucilia cuprina); assay: Lucilia cuprina test (LUCICU); assay type: in vivo; settings: application rate 100 ppm; minced horsemeat; after 2 days
Description: Lucilia cuprina Test (LUCICU) Solvent: dimethyl sulphoxide To produce a suitable preparation of active compound, 10 mg of active compound are mixed with 0.5 ml of dimethyl sulphoxide, and the concentrate is diluted with water to the desired concentration. About 20 L1 larvae of the Australian sheep blowfly (Lucilia cuprina) are transferred into a test vessel containing minced horsemeat and the active compound preparation of the desired concentration. After 2 days, the kill in % is determined. 100% means that all of the larvae have been killed; 0% means that none of the larvae have been killed.

Compound	efficacy in % ([1]; application rate 100 g/ha) [%]	efficacy in % ([2]; application rate 100 g/ha) [%]	efficacy (no laying of fertile eggs) [3] [%]	kill in % [6] [%]	kill in % [8] [%]	also measured
Cn1nc(C(F)(F)C(F)(F)F)c(C(F)(F)F)c1-n1cc(-c2ccc(F)c(CNC(=O)c3ccccc3)c2)cn1 [Ic-14]	100	90	100			
Cn1nc(C(F)(F)C(F)(F)F)c(C(F)(F)F)c1-n1cnc(-c2cccc(CN)c2)c1 [1-(3-{1-[1-methyl-3-(pentafluoroethyl)-4-(trifluoromethyl)-1H-pyrazol-5-yl]-1H-imidazol-4-yl}phenyl)methanamine hydrochloride]						chromatographic logP [4]: 1.83
CC(NC(=O)C1CC1)c1cccc(-c2cnn(-c3c(C(F)(F)F)c(C(F)(F)C(F)(F)F)nn3C)c2)c1 (racemic) [Ic-21]	100	90				
Cn1nc(C(F)(F)C(F)(F)F)c(C(F)(F)F)c1-n1cc(-c2ccc(F)c(CNC(=O)CC(F)(F)F)c2)cn1 [Ic-5]	100	100	100	100	100	efficacy in % ([5]; application rate 100 g/ha): 100%; kill in % [7]: 100%
Cn1nc(C(F)(F)C(F)(F)F)c(C(F)(F)F)c1-n1cnc(-c2ccc(F)c(CNC(=O)C3CC3)c2)c1 [Ib-7]	100					
CC(=O)NCc1cccc(-c2cn(-c3c(C(F)(F)F)c(C(F)(F)C(F)(F)F)nn3C)nn2)c1 [Ig-6]	100		100	100	100	
Cn1nc(C(F)(F)C(F)(F)F)c(C(F)(F)F)c1-n1cc(-c2cccc(CN)c2)cn1 [1-{3-[2′-methyl-5′-(pentafluoroethyl)-4′-(trifluoromethyl)-2′H-1,3′-bipyrazol-4-yl]phenyl}methanamine hydrochloride (1:1)]						chromatographic logP [4]: 1.93
CCC(=O)NCc1cc(-c2ccn(-c3c(C(F)(F)F)c(C(F)(F)C(F)(F)F)nn3C)n2)ccc1F [Id-2]	100		90	80	90	efficacy in % ([5]; application rate 100 g/ha): 100%
CC(C)C(=O)NCc1cc(-c2cnn(-c3c(C(F)(F)F)c(C(F)(F)C(F)(F)F)nn3C)c2)ccc1F [Ic-28]	100		100	90	100	efficacy in % ([5]; application rate 100 g/ha): 100%
Cn1nc(C(F)(F)C(F)(F)F)c(C(F)(F)F)c1-n1cc(-c2ccc(F)c(CNC(=O)C(F)(F)F)c2)cn1 [Ic-6]	100	100	100	100	100	kill in % [7]: 80%
Cn1nc(C(F)(F)C(F)(F)F)c(C(F)(F)F)c1-n1cc(-c2cncc(CNC(=O)C3CC3)c2)cn1 [Ic-29]	100	90				
CC(=O)NCc1cc(-c2ccn(-c3c(C(F)(F)F)c(C(F)(F)C(F)(F)F)nn3C)n2)ccc1F [Id-4]	100					
Cn1nc(C(F)(F)C(F)(F)F)c(C(F)(F)F)c1-n1cc(-c2ccc(F)c(CNC(=O)c3cncnc3)c2)cn1 [Ic-27]	83	100	100	90		
CC(=O)NC(C)c1cccc(-c2cnn(-c3c(C(F)(F)F)c(C(F)(F)C(F)(F)F)nn3C)c2)c1 (stereo not drawn) [Ic-31]	100					
Cn1nc(C(F)(F)C(F)(F)F)c(C(F)(F)F)c1-n1cc(-c2ccc(F)c(CNC(=O)C3CCOC3)c2)cn1 (racemic) [Ic-9]	100	90	100	100	100	
Cn1nc(C(F)(F)C(F)(F)F)c(C(F)(F)F)c1-n1cc(-c2cccc(CNC(=O)C3CC3)c2)nn1 [Ig-2]	100		100	100	100	kill in % [7]: 100%
CSC(C)C(=O)NCc1cc(-c2cnn(-c3c(C(F)(F)F)c(C(F)(F)C(F)(F)F)nn3C)c2)ccc1F (stereo not drawn) [Ic-30]		100	100	95	100	
CCC(=O)NCc1cccc(-c2cn(-c3c(C(F)(F)F)c(C(F)(F)C(F)(F)F)nn3C)nn2)c1 [Ig-4]	100	90	100	100	100	kill in % [7]: 100%
Cn1nc(C(F)(F)C(F)(F)F)c(C(F)(F)F)c1-n1cc(-c2ccc(F)c(CNC=O)c2)cn1 [Ic-19]			100	100	100	efficacy in % ([1]; application rate 500 g/ha): 100%; efficacy in % ([2]; application rate 500 g/ha): 90%; efficacy in % ([5]; application rate 500 g/ha): 83%
CCC(=O)NCc1cccc(-c2ccn(-c3c(C(F)(F)F)c(C(F)(F)C(F)(F)F)nn3C)n2)c1 [Id-5]	100					
Cn1nc(C(F)(F)C(F)(F)F)c(C(F)(F)F)c1-n1cc(-c2ccc(F)c(CNC(=O)c3cccnc3)c2)cn1 [Ic-15]		100	90			
CCC(=O)NCc1cc(-c2cnn(-c3c(C(F)(F)F)c(C(F)(F)C(F)(F)F)nn3C)n2)ccc1F [If-1]	100		100	100	100	efficacy in % ([5]; application rate 100 g/ha): 100%; kill in % [7]: 80%
Cn1nc(C(F)(F)C(F)(F)F)c(C(F)(F)F)c1-n1ccc(-c2ccc(F)c(CNC(=O)C3CC3)c2)n1 [Id-9]	100		90			efficacy in % ([5]; application rate 100 g/ha): 83%
